Test results taken from PubChem BioAssay AID1845211 (Molecular Pharmacology Branch, DTP, NCI, 2023).

System: NCI-H322M multicellular tumor spheroids, viability (% test/control)
Assay: Anticancer human tumor NCI-H322M cell line growth inhibition;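 on viability, T/C: spheroids exposed to compound for seven days before readout; 100% = DMSO vehicle control wells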
Settings: for IC50: curve of first compound; for viability, T/C: stronger effect = lower value; active means viability on the fitted dose curve at most 10% of control; inactive means the rest
In short: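 Complex tumor spheroids combined malignant cells with endothelial cells and mesenchymal stem cells. DNA-damaging drugs and DNA repair inhibitors were tested alone and in combination, at half-log dilutions down from clinical Cmax (top 10 microM if Cmax unknown), 0.25% DMSO final.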

CC(C)n1c(=O)n(C)c2cnc3cc(F)c(-c4ccc(OCCCN5CCCCC5)nc4)cc3c21 + COc1cc2c(cc1O)CCNC21CSC2c3c(OC(C)=O)c(C)c4c(c3C(COC1=O)N1C(O)C3Cc5cc(C)c(OC)c(O)c5C(C21)N3C)OCO4
0.276 µM: IC50 (second compound 0.000949 µM)
< 0.0316 µM: IC50 (second compound 0.003 µM)
inactive: viability, T/C (second compound 30 pM, first compound 0.0316 µM) 74.8% | viability, T/C (second compound 30 pM, first compound 0.1 µM) 73.8% | viability, T/C (second compound 30 pM, first compound 0.316 µM) 74.4% | viability, T/C (second compound 30 pM, first compound 1 µM) 62.8% | viability, T/C (second compound 30 pM, first compound 3.16 µM) 64.2% | viability, T/C (second compound 30 pM, first compound 10 µM) 54.7% | viability, T/C (second compound 94.9 pM, first compound 0.0316 µM) 77.3% | viability, T/C (second compound 94.9 pM, first compound 0.1 µM) 64.4% | viability, T/C (second compound 94.9 pM, first compound 0.316 µM) 85.3% | viability, T/C (second compound 94.9 pM, first compound 1 µM) 69% | viability, T/C (second compound 94.9 pM, first compound 3.16 µM) 61.4% | viability, T/C (second compound 94.9 pM, first compound 10 µM) 62.5% | viability, T/C (second compound 0.0003 µM, first compound 0.0316 µM) 58.5% | viability, T/C (second compound 0.0003 µM, first compound 0.1 µM) 59.9% | viability, T/C (second compound 0.0003 µM, first compound 0.316 µM) 58.3% | viability, T/C (second compound 0.0003 µM, first compound 1 µM) 72.1% | viability, T/C (second compound 0.0003 µM, first compound 3.16 µM) 68.5% | viability, T/C (second compound 0.0003 µM, first compound 10 µM) 60% | viability, T/C (second compound 0.000949 µM, first compound 0.0316 µM) 63.8% | viability, T/C (second compound 0.000949 µM, first compound 0.1 µM) 69.2% | viability, T/C (second compound 0.000949 µM, first compound 0.316 µM) 45.3% | viability, T/C (second compound 0.000949 µM, first compound 1 µM) 42.2% | viability, T/C (second compound 0.000949 µM, first compound 3.16 µM) 46.6% | viability, T/C (second compound 0.000949 µM, first compound 10 µM) 57.1%
> 10 µM: IC50 (second compound 30 pM) | IC50 (second compound 94.9 pM) | IC50 (second compound 0.0003 µM)
active: viability, T/C (second compound 0.003 µM, first compound 0.0316 µM) 5.32% | viability, T/C (second compound 0.003 µM, first compound 0.1 µM) 5.15% | viability, T/C (second compound 0.003 µM, first compound 0.316 µM) 3.05% | viability, T/C (second compound 0.003 µM, first compound 1 µM) 3.74% | viability, T/C (second compound 0.003 µM, first compound 3.16 µM) 6.35% | viability, T/C (second compound 0.003 µM, first compound 10 µM) 6.1%

CNCc1ccc(-c2cc(-c3nc(-c4ccc(S(=O)(=O)C(C)C)cc4)cnc3N)on2)cc1 + Cn1nnc2c(C(N)=O)ncn2c1=O
inactive: viability, T/C (second compound 1 µM, first compound 0.00949 µM) 100% | viability, T/C (second compound 1 µM, first compound 0.03 µM) 104% | viability, T/C (second compound 1 µM, first compound 0.0949 µM) 82.1% | viability, T/C (second compound 1 µM, first compound 0.3 µM) 84.1% | viability, T/C (second compound 1 µM, first compound 0.949 µM) 75.7% | viability, T/C (second compound 1 µM, first compound 3 µM) 83.3% | viability, T/C (second compound 3.16 µM, first compound 0.00949 µM) 79.5% | viability, T/C (second compound 3.16 µM, first compound 0.03 µM) 76.2% | viability, T/C (second compound 3.16 µM, first compound 0.0949 µM) 75% | viability, T/C (second compound 3.16 µM, first compound 0.3 µM) 86.9% | viability, T/C (second compound 3.16 µM, first compound 0.949 µM) 81.4% | viability, T/C (second compound 3.16 µM, first compound 3 µM) 87.6% | viability, T/C (second compound 10 µM, first compound 0.00949 µM) 78.7% | viability, T/C (second compound 10 µM, first compound 0.03 µM) 89% | viability, T/C (second compound 10 µM, first compound 0.0949 µM) 77.6% | viability, T/C (second compound 10 µM, first compound 0.3 µM) 99.2% | viability, T/C (second compound 10 µM, first compound 0.949 µM) 81.1% | viability, T/C (second compound 10 µM, first compound 3 µM) 75.4% | viability, T/C (second compound 31.6 µM, first compound 0.00949 µM) 110% | viability, T/C (second compound 31.6 µM, first compound 0.03 µM) 76.2% | viability, T/C (second compound 31.6 µM, first compound 0.0949 µM) 78.3% | viability, T/C (second compound 31.6 µM, first compound 0.3 µM) 76.3% | viability, T/C (second compound 31.6 µM, first compound 0.949 µM) 68.4% | viability, T/C (second compound 31.6 µM, first compound 3 µM) 66% | viability, T/C (second compound 100 µM, first compound 0.00949 µM) 95.6% | viability, T/C (second compound 100 µM, first compound 0.03 µM) 87% | viability, T/C (second compound 100 µM, first compound 0.0949 µM) 81.7% | viability, T/C (second compound 100 µM, first compound 0.3 µM) 71% | viability, T/C (second compound 100 µM, first compound 0.949 µM) 70.1% | viability, T/C (second compound 100 µM, first compound 3 µM) 58.3%
> 3 µM: IC50 (second compound 1 µM) | IC50 (second compound 3.16 µM) | IC50 (second compound 10 µM) | IC50 (second compound 31.6 µM) | IC50 (second compound 100 µM)
